Tests used:
[1] = system: Dermal fibroblast, CG1639 cells; assay: Profibrogenic gene expression in dermal fibroblast cell line (qRT-PCR); format: cell-based; settings: two concentrations, 72 hrs
Text: (§1) The dermal fibroblast cell line CG1639 was obtained from the BCRC (Bioresource Collection and Research Center) and cultured in Dulbecco's modified Eagle media (DMEM, Gibco by Invitrogen) with 1% antibiotic antimycotic (Gibco by Invitrogen) and 15% fetal bovine serum (Gibco by Invitrogen). The fetal rat skin keratinocyte, FRSK cell line was obtained from the Japan HSRRB (Health Science Research Resources Bank) and cultured in Eagle's minimal essential media (MEM, Gibco by Invitrogen) supplemented with 10% fetal bovine serum (FBS) (Gibco by Invitrogen) and 1% antibiotic antimycotic (Gibco by Invitrogen). B16F10 cells, a murine melanoma cell line, were purchased from American Type Culture Collection (ATCC, Rockville, Md., USA) and was cultured in Eagle's Minimum Essential Medium (MEM; Sigma, St. Louis, Mo.) supplemented with 10% fetal bovine serum (FBS; HyClone Lab. Inc., Logan, Utah), 0.02% antibiotic-antimycotic liquid (penicillin, 10 000 U mL^−1; streptomycin, 10 000 μg mL^−1 and amphotericin B, 25 μg mL^−1; Invitrogen, Carlsbad, Calif.).
Reverse transcription reaction was performed using a commercially available set of High Capacity RNA-to-cDNA Kit (Applied Biosystems, USA). cDNA was prepared from 2 μg of total RNA per 20 μl reaction, according to the manufacturer's instructions—37° C. for 60 minutes, 95° C. for 5 minutes, and hold at 4° C. The resulting cDNA was to a final concentration of 100 ng/μl and constituted a matrix in further experiments.
Amplification and detection the gene expression by real-time PCR were performed using StepOne plus Real-time PCR System (Applied Biosystems, USA). Samples were assayed in a 10 μl reaction mixture containing 2 μl of template DNA, 5 μl of 2× TaqMan PCR Master Mix (Applied Biosystems, Life Technologies, Foster City, Calif., USA), 0.5 μl of 20× assay mix containing probe, forward and reverse primer (Applied Biosystems, Life Technologies, Foster City, Calif., USA), whereby qPCR targets with the following information were used: (a) α-SMA, Assay ID Rn01759928_g1, (b) TIMP-1, Assay ID Rn00587558_m1, (c) TGF-β1, Assay ID Rn00572010_m1, (d) Collagen I, Assay ID Rn 01463838_m1, (e) GAPDH, Assay ID Rn1462662_g1. To control variation in mRNA concentration, all results were normalized to the housekeeping gene, GAPDH. Relative quantitation was performed using the comparative ΔΔCt method according to the manufacturer's instructions. The cycling conditions used were as follows: 50° C. for 2 min, 95° C. for 10 min followed by 40 cycles of 95° C. for 15 s and 60° C. for 1 min each.
Dermal fibroblast, CG1639 cells, were exposed to Hepasim compounds by two different concentrations for 72 hrs. Then, RNA was extracted and subsequent real-time quantitative PCR Collagen-1, TGF-β1, α-SMA and TIMP-1 mRNA were measured.

[2] = system: B16F10 cells; assay: Melanin content in B16F10 cells after UV irradiation; format: cell-based, murine; settings: 10 μM for 72 hrs prior to UV irradiation; UV alone 33.80±4.6% increase over non-UV cells (7.4±0.3 μg/mg protein)
Text: as §1
To investigate the induction of melanogenesis and the oxidative stress by direct UV irradiation, melanoma cells and keratocytes were irradiated with 8 J cm^−2 of UVA (FL15BLB, 352 nm, 15 W; Toshiba, Tokyo, Japan) and 10 mJ cm^−2 of UVB (G15T8E, 306 nm, 15 W; Sankyo Denki, Tokyo, Japan) in a HANKS' balanced salt solution (Sigma). The UV intensity was measured by using a Model UVX Digital Radiometer (UVP Inc., Upland, Calif.).
B16F10 and FRSK cells were exposed to Hepasim compounds A-D by two different concentrations (3 or 10 μM) for 72 hrs prior to UVA irradiation. DMEM was replaced with phosphate buffered saline (PBS) to avoid generation of medium-derived toxic photoproducts prior to UV irradiation. Cells were collected 24 hrs after UVA irradiation and assayed. For preparation of cell lysate, the harvested cells were pelleted by centrifugation and lysed in lysis buffer containing 50 mM Tris-HCl, 10 mM ethylene diaminetetraacetic acid (EDTA), 1% (v/v) Tri-ton X-100, phenylmethylsulfonyl fluoride (PMSF) (100 mg/ml) and pepstatin A (1 mg/ml) in DMSO and leupeptin (1 mg/ml) in H2O, pH 6.8. The cells were centrifuged at 10,000 rpm for 10 min and the total cell lysate was collected and stored at −80° C.
In order to measure the melanin contents, B16F10 cells were sonicated on ice and the mixture was centrifuged (25 000 g, 10 min, 4° C.). The supernatant was transferred, and pellets were dissolved in 0.85 N KOH at 60° C. for 20 min. Standard melanin (Sigma) was incubated in parallel. Spectrophotometric analysis of melanin content was then performed at an absorbance of 405 nm

Row | Compound | All-4 profibrogenic gene expression (Collagen-1, TGF-β1, α-SMA, TIMP-1) [1] | dose dependence of profibrogenic gene down-regulation [1] | melanin production in UV-irradiated B16F10 cells [2] [%]
1 | CC(C)=CCOc1ccc(C2=C(CC(C)C)C(=O)NC2=O)cc1 [Compound B, 3-isobutyl-4-[4-(3-methyl-2-butenyloxy)phenyl]-1H-pyrrol-2,5-dione] | down-regulated significantly | dose-dependent effect | 29.40±4.3
2 | CC(C)=CCOc1ccc(C2=C(CC(C)C)C(=O)N(O)C2=O)cc1 [Compound C, 3-isobutyl-4-[4-(3-methyl-2-butenyloxy)phenyl]-1H-pyrrol-1-ol-2,5-dione] | down-regulated significantly | dose-dependent effect | 28.92±5.3

Source: patent publication US9572760B2, “Uses of compounds and mixtures from Antrodia cinnamomea mycelia” (Simpson Biotech Co., Ltd., priority 2013, dated 2017)
